Here are results for 1 compound from ChEMBL document CHEMBL3638666, “Selective kinase inhibitors” (2013).

A value given as a limit tells only on which side of the number the result lay.

The target in experiment [1] is Tyrosine-protein kinase JAK1 (Homo sapiens, UniProt P23458). Nature of the experiment: (§1) In Vitro Kinase Enzyme Assay: In vitro kinase enzyme assay using Jak3, Jak2, Jak1, and Tyk2.
Experiment [2] concerns the target Non-receptor tyrosine-protein kinase TYK2 (Homo sapiens, UniProt P29597). The experiment is described as §1.
For experiment [3], the target named is Tyrosine-protein kinase JAK2 (Homo sapiens, UniProt O60674). The experiment is described as §1.
Sequence of Tyrosine-protein kinase JAK2 (O60674 whole entry): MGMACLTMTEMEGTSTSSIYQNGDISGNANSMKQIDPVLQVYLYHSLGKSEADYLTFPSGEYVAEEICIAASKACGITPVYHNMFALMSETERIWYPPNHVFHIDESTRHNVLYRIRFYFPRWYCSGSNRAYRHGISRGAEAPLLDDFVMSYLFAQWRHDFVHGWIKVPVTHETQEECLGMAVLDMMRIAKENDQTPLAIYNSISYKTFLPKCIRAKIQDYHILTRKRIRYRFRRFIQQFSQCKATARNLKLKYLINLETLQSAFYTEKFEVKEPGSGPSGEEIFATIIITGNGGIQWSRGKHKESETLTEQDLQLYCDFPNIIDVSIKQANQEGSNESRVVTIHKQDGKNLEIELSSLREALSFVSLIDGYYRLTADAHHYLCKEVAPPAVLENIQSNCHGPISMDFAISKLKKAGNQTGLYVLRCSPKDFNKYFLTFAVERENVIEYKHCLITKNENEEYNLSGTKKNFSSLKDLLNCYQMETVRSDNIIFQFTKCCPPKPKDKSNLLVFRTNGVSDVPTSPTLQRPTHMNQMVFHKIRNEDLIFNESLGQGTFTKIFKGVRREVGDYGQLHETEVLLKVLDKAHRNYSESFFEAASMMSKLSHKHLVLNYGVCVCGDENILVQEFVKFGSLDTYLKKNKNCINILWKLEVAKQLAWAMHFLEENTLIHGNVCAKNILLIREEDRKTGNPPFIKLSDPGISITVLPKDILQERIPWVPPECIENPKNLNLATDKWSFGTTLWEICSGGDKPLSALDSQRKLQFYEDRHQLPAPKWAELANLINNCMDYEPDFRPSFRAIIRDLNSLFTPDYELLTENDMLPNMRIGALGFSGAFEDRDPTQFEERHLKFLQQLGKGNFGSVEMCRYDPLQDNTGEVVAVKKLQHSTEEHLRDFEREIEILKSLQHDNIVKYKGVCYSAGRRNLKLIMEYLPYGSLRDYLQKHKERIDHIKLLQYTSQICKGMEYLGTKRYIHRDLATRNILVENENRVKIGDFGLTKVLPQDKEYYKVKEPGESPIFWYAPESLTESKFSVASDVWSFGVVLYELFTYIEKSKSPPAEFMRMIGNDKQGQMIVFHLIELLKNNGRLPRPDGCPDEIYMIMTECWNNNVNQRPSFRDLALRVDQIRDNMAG
Experiment [4] has as its target T1, Tyrosine-protein kinase JAK3 (Homo sapiens, UniProt P52333).
T1 sequence (P52333 whole entry): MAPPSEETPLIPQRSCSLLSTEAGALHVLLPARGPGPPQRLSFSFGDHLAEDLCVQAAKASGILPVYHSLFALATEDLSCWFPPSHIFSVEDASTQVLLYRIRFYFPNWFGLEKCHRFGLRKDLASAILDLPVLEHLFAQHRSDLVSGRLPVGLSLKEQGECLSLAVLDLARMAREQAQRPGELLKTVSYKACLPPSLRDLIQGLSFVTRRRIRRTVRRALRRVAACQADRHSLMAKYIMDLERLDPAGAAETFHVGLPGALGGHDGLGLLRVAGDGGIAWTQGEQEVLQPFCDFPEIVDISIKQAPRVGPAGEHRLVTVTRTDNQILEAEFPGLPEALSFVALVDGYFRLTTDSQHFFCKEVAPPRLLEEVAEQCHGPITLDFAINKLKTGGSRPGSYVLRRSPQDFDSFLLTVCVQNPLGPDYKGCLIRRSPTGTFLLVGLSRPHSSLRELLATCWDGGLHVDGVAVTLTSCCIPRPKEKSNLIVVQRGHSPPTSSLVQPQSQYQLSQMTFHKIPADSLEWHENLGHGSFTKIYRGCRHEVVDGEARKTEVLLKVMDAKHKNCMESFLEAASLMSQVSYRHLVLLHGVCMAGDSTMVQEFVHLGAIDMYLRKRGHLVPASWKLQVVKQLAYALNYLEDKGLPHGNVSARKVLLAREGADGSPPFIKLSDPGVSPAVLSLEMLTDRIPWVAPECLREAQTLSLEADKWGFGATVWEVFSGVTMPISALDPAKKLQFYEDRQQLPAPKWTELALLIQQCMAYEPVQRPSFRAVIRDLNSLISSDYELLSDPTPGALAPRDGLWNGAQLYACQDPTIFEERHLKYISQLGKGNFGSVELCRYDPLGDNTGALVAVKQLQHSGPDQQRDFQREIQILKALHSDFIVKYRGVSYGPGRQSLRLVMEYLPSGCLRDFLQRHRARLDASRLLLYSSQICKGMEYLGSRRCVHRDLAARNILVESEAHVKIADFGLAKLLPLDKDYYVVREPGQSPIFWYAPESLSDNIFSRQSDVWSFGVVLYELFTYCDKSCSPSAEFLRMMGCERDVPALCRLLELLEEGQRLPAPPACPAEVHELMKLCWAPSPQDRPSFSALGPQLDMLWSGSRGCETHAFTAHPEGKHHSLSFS
Described as §1.

Sequence of Non-receptor tyrosine-protein kinase TYK2 (P29597 whole entry): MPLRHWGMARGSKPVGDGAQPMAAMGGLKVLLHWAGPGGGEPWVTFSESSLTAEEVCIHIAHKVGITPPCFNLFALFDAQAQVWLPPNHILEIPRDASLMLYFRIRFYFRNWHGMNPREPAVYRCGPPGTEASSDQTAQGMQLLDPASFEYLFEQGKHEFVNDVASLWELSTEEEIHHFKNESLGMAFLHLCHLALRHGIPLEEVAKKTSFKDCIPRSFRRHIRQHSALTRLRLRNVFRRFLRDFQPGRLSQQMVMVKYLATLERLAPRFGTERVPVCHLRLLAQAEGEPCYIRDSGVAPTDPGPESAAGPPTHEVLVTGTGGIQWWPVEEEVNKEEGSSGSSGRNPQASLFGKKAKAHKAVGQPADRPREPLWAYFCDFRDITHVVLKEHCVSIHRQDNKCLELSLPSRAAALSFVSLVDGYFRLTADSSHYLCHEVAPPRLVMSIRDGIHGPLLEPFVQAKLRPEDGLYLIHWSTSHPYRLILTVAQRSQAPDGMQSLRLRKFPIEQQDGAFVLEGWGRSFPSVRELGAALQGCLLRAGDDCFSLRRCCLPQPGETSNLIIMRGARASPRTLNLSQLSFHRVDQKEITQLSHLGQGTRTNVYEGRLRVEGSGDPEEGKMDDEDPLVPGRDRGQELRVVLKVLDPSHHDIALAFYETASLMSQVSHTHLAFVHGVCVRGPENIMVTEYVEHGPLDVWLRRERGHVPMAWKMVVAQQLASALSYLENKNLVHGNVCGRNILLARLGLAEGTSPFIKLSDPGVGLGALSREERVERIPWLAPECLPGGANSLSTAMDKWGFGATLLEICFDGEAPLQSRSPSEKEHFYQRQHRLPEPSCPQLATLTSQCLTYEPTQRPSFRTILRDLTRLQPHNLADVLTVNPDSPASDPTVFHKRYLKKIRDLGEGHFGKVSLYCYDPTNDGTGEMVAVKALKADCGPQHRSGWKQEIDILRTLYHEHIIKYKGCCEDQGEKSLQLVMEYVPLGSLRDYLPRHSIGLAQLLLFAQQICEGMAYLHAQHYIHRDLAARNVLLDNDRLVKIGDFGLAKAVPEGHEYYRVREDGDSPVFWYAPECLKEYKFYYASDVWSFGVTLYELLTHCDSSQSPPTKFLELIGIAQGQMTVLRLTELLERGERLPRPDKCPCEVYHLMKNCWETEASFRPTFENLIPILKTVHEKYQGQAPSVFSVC
Sequence of Tyrosine-protein kinase JAK1 (P23458 whole entry): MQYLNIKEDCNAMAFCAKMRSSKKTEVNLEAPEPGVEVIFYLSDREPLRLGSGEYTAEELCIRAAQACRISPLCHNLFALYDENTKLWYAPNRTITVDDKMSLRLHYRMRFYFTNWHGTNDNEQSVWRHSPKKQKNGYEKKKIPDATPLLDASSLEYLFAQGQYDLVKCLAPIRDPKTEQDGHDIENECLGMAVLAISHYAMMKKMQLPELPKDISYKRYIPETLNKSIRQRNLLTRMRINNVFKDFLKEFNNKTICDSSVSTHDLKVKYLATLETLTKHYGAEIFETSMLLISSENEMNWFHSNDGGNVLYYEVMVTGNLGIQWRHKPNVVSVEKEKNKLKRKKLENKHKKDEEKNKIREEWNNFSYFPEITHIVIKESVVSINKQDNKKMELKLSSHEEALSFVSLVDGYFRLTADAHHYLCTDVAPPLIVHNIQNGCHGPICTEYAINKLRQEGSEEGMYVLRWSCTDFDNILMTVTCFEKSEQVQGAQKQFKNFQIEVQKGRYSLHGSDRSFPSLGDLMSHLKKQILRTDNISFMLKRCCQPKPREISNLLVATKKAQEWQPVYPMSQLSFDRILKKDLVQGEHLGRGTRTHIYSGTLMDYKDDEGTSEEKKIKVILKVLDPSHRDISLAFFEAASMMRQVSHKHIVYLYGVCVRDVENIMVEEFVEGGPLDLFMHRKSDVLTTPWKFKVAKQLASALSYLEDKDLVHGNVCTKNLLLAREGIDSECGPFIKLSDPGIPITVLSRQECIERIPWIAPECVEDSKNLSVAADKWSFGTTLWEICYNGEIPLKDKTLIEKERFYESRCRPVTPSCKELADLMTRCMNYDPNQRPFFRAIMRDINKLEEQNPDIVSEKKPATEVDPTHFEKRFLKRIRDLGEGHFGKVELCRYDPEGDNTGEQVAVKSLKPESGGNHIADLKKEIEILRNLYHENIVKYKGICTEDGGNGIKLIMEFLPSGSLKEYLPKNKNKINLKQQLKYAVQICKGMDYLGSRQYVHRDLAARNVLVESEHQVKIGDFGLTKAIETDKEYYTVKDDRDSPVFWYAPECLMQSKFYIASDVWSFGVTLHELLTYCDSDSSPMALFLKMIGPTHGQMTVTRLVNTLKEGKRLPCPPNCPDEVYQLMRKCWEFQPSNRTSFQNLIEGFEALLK

Regarding `O=C(CBr)Nc1cccc(-c2cnc3ccccc3n2)c1`, the IC50 (as a rule, the point on the concentration scale where inhibition reaches its midpoint) was more than 10 µM in experiment [1], more than 10 µM in experiment [2], more than 10 µM in experiment [3] and 0.0003 µM in experiment [4].
